# Measurements reported in patent EP1167342A1, “Novel substituted nitrocatechols, their use in the treatment of some central and peripheral nervous system disorders and pharmaceutical compositions containing them” (Portela & Ca., S.A., priority 2000, dated 2002).
# Tests used:
# [1] = system: Liver COMT; assay: Ex vivo COMT activity in mouse liver homogenates after administration of test compound by gastric tube; set-up: species or system NMRI mice; conditions: for Liver COMT (% of control) 1h / Liver COMT (% of control) 6h: homogenates of mice liver, dose not given, means±S.E.M. of 4-8 experiments; for Liver COMT (% of control) 1h: 1 h after administration by gastric tube; for Liver COMT (% of control) 6h: 6 h after administration by gastric tube; for potency upon liver COMT compared with brain COMT: mice, after oral administration, statement in words
# [2] = target: T1, COMT (Homo sapiens, UniProt P21964); assay: COMT activity in intact SK-N-SH cells (methylation of adrenaline to metanephrine, HPLC with electrochemical detection); type: cell-based; conditions: concentration of test compound 100 nM, means ±SEM of n=4-8
# T1 construct: COMT activity was evaluated in cell monolayers by the ability to methylate adrenaline; host or cells: SK-N-SH
# T1 sequence (P21964 1-271): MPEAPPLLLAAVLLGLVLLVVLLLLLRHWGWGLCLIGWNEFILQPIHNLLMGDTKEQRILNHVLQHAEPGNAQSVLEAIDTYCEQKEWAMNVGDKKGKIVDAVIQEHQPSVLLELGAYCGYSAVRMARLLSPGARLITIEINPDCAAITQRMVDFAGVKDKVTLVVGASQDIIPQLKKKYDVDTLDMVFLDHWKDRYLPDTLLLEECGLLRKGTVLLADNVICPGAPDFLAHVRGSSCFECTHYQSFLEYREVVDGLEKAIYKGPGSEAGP
# [3] = system: Brain COMT; assay: Ex vivo COMT activity in mouse brain homogenates after administration of test compound by gastric tube; set-up: species or system NMRI mice; conditions: for Brain COMT (% of control) 1h / Brain COMT (% of control) 6h: homogenates of mice brain, dose not given, means±S.E.M. of 4-8 experiments; for Brain COMT (% of control) 1h: 1 h after administration by gastric tube; for Brain COMT (% of control) 6h: 6 h after administration by gastric tube; for activity in the brain: conclusion, statement in words
Compound,Liver COMT (% of control) 1h [1],Liver COMT (% of control) 6h [1],COMT activity (% of control) [2],Brain COMT (% of control) 1h [3],Brain COMT (% of control) 6h [3],potency upon liver COMT compared with brain COMT [1],activity in the brain [3]
"Cl.N#CC1(c2ccccc2)CCN(CCC(=O)c2cc(O)c(O)c([N+](=O)[O-])c2)CC1 [Compound 15, 1-[3-(3,4-Dihydroxy-5-nitro-phenyl)-3-oxo-propyl]-4-phenyl-piperidine-4-carbonitrile hydrochloride]",51.7±5.9 % of control,37.9±8.4 % of control,2.9±0.3 % of control,93.0±9.0 % of control,122.0±9.0 % of control,–,–
"Cl.O=C(CC(c1ccccc1)N1CCCC1)c1cc(O)c(O)c([N+](=O)[O-])c1 (stereo not drawn) [Compound 4, 1-(3,4-Dihydroxy-5-nitro-phenyl)-3-phenyl-3-pyrrolidin-1-yl-propan-1-one hydrochloride]",12.0±1.8 % of control,14.4±4.3 % of control,23.8±2.9 % of control,55.0±8.7 % of control,49.6±4.9 % of control,–,–
"O=C(COc1cccc2ccccc12)c1cc(O)c(O)c([N+](=O)[O-])c1 [Compound 25, 1-(3,4-Dihydroxy-5-nitro-phenyl)-2-(naphthalen-1-yloxy)-ethanone]",13.7±1.9 % of control,31.1±5.5 % of control,0.0±0.0 % of control,62.8±5.1 % of control,92.4±10.8 % of control,–,–
"CC1CC(C)CN(CC(=O)c2cc(O)c(O)c([N+](=O)[O-])c2)C1.Cl (stereo not drawn) [Compound 12, 1-(3,4-Dihydroxy-5-nitro-phenyl)-2-(3,5-dimethyl-piperidin-1-yl)-ethanone hydrochloride]",33.0±2.0 % of control,52.0±13.0 % of control,15.4±1.8 % of control,32.0±2.0 % of control,84.0±6.0 % of control,–,–
"Cl.Cl.O=C(CN1CCN(c2cccc(C(F)(F)F)c2)CC1)c1cc(O)c(O)c([N+](=O)[O-])c1 [Compound 13, 1-(3,4-Dihydroxy-5-nitro-phenyl)-2-[4-(3-trifluoromethyl-phenyl)-piperazin-1-yl]-ethanone dihydrochloride]",49.7±3.2 % of control,46.7±2.9 % of control,7.7±0.6 % of control,76.0±9.0 % of control,100.0±10.0 % of control,–,–
"CC1CCCCN1CC(=O)c1cc(O)c(O)c([N+](=O)[O-])c1.Cl (stereo not drawn) [Compound 6, 1-(3,4-Dihydroxy-5-nitro-phenyl)-2-(2-methyl-piperidin-1-yl)-ethanone hydrochloride]",57.6±5.8 % of control,99.9±10.3 % of control,12.2±1.7 % of control,37.0±3.3 % of control,66.0±2.6 % of control,–,–
"Cl.O=C(CC(c1ccccc1)N1CCOCC1)c1cc(O)c(O)c([N+](=O)[O-])c1 (stereo not drawn) [Compound 5, 1-(3,4-Dihydroxy-5-nitro-phenyl)-3-morpholin-4-yl-3-phenyl-propan-1-one hydrochloride]",16.7±1.6 % of control,35.2±9.6 % of control,40.2±8.7 % of control,38.6±6.4 % of control,57.2±5.1 % of control,equally potent in inhibiting liver and brain COMT activity,–
"Cl.O=C(CN1CCc2ccccc2C1)c1cc(O)c(O)c([N+](=O)[O-])c1 [Compound 21, 2-(3,4-Dihydro-1H-isoquinolin-2-yl)-1-(3,4-dihydroxy-5-nitro-phenyl)-ethanone hydrochloride]",55.1±5.0 % of control,77.5±18.0 % of control,0.9±0.6 % of control,96.0±8.0 % of control,104.0±17.0 % of control,–,–
"O=C(COc1ccc2ccccc2c1)c1cc(O)c(O)c([N+](=O)[O-])c1 [Compound 10, 1-(3,4-Dihydroxy-5-nitro-phenyl)-2-(naphthalen-2-yloxy)-ethanone]",17.3±2.7 % of control,38.7±4.7 % of control,2.0±0.1 % of control,83.0±5.0 % of control,119.0±13.0 % of control,much more potent upon liver COMT than brain COMT,limited activity in the brain
"CCOC(=O)C1CCN(CCC(=O)c2cc(O)c(O)c([N+](=O)[O-])c2)CC1.Cl [Compound 17, 1-[3-(3,4-Dihydroxy-5-nitro-phenyl)-3-oxo-propyl]-piperidine-4-carboxylic acid ethyl ester hydrochloride]",36.8±2.3 % of control,69.6±8.9 % of control,7.7±0.5 % of control,96.0±5.0 % of control,109.0±14.0 % of control,–,–
"Cl.O=C(CCN1CCCCC1)c1cc(O)c(O)c([N+](=O)[O-])c1 [Compound 2, 1-(3,4-Dihydroxy-5-nitro-phenyl)-3-piperidin-1-yl-propan-1-one hydrochloride]",24.6±4.8 % of control,56.9±17.7 % of control,7.5±0.6 % of control,80.0±11.0 % of control,95.0±12.0 % of control,much more potent upon liver COMT than brain COMT,limited activity in the brain
